Assay results from patent publication US10351915B2 (Berg LLC, priority 2009, dated 2019).

Legend:
[1] = system: SKMEL-28 cells; assay: 2-D gel electrophoresis proteomic analysis; assay type: cell-based
Procedure: For isolation of proteins, cells were washed three times with 5 mL of ice cold PBS at a pH of 7.4. The cells were then scraped in 3 mL of PBS, pelleted by centrifuge, and re-suspended in a lysis buffer at pH 7.4 (80 mM TRIS-HCl, 1% SDS, with protease and phosphotase inhibitors). Protein concentrations were quantified using the BCA method.
The gels were run in duplicate.
The first experimental set processed and evaluated by Western blot and 2-D gel electrophoresis was the skin cancer cell line SKMEL-28.
A comparative analysis of 943 spots across all twenty-four gels was performed, comparing the control sample against all of the treated samples. The analysis included the identification of spot changes over the time course due to increase, decrease, or post-translational modification.
The analysis found thirty-two statistically significant differential spot changes. […] The characterized peptides were searched against protein databases with Mascot and MSRAT software analysis to identify the protein (Table 2).

[2] = system: ATP Citrate Lyase (ACL); assay: Western blot, ATP Citrate Lyase levels; assay type: cell-based, human; conditions: for ATP Citrate Lysase as % of CTRL, Normalized Intensity: 48 h
Procedure: After transfer each of the blots was placed in between 2 Whatman Filter papers and dried for 15-20 minutes. After drying the blots were labeled with the date, the type of samples and either blot 1 or blot 2 using a HB pencil. The molecular weight markers were outlined with the pencil and with single lines for the blue and a doublet for the colored markers. The blots were activated with methanol for 5 seconds, washed with water for 5 minutes, and TBST for 15 minutes. The blots were blocked for 1 hour with 5% blocking reagent in TBS-T at room temperature and then washed 3 times with TBS-T (1×-15′; 2×5′ each). Blot 1 was probed with the primary antibody for IDH1 (Cell Signaling #3997) in TBST with 5% BSA (at 1:1000 dilutions) and blot 2 with the rabbit polyclonal antibody for ATP Citrate Lyase in 5% BSA (Cell Signaling #4332) at 1:1000 dilution by incubation overnight at 4 deg C. with shaking. After the overnight incubation with primary antibodies, the blots were washed 3 times with TBS-T (1×-15′; 2×5′ each) and probed with the secondary antibody (antirabbit; 1:10,000 dilution) for 1 h on the orbital tilting shaker at room temperature. After 1 h of incubation with secondary antibodies, the blots were washed 3 times with TBS-T (1×-15′; 2×5′ each) and then incubated with ECF reagent for 5 mins and then each blot scanned with 5100 Fuji Laser scanner at 25 uM resolution, 16 bit, green laser, at 400V and at 500 V.
The Isocitrate dehydrogenase blot was stripped by incubating for 30 minutes with methanol, followed by two 10 minute washes with TBS-T, then 30 minutes of incubation with stripping buffer at 50 deg C., and followed by two washes with 100 ml or more of TBS-T for 30′ each. The blot was scanned in laser scanner to check for complete stripping. The blot was activated with methanol for 5 seconds, washed with water for 5 minutes, and TBST for 15 minutes. The blot was blocked for 1 hour with 5% blocking reagent in TBS-T at room temperature and then washed 3 times with TBS-T (1×-15′; 2×5′ each). This was then probed with the rabbit polyclonal antibody for ATP Citrate Lyase in 5% BSA (Cell Signaling #4332) at 1:1000 dilution overnight at 4 deg C. with shaking. After the overnight incubation with primary antibody for ATP Citrate Lyase, the membrane was washed 3 times with TBS-T (1×-15′; 2×5′ each) and probed with the secondary antibody (antirabbit; 1:10,000 dilution) for 1 h on the orbital tilting shaker at room temperature. After 1 h of incubation with secondary antibodies, the blot was washed 3 times with TBS-T (1×-15′; 2×5′ each) and then incubated with ECF reagent for 5 minutes and then each blot scanned with 5100 Fuji Laser scanner at 25 uM resolution, 16 bit, green laser, at 400V and at 500 V.
The levels of IDH1, ATP citrate lyase and actin levels were determined by probing the blots with primary antibodies for IDH1, ATP citrate lyase and actin, essentially as described above.

[3] = system: SKMEL-28 mitochondria; assay: 2-D gel electrophoresis of mitochondria enriched samples; assay type: cell-based
[4] = system: HDFa cells; assay: Extracellular acidification rate (ECAR), SeaHorse XF analyzer; assay type: cell-based, human
Description: (SeaHorse Biosciences Inc, North Billerica, Mass.).
In this experiment, the OCR and extracellular acidification rate (ECAR) in normal cells lines were obtained in the presence and absence of CoQ10 to determine baseline values. It was observed that in its native nutrient environment, the basal OCR rates in normal cells lines are different, and are usually a function of the physiological roles of the cells in the body.
Table 127 below describes the ECAR values (mpH/min) in HDFa cells in the presence or absence of CoQ10 under normoxic and hypoxic conditions at 5.5 mM and 22 mM glucose.

Compound: COC1=C(OC)C(=O)C(C/C=C(\C)CC/C=C(\C)CC/C=C(\C)CC/C=C(\C)CC/C=C(\C)CC/C=C(\C)CC/C=C(\C)CC/C=C(\C)CC/C=C(\C)CCC=C(C)C)=C(C)C1=O [Q10, Coenzyme Q10]
- Expression (2D spot) ([1]; 3 hr, 50 uM Q10): down
- Expression (2D spot) ([1]; 3 hr, 100 uM Q10): down
- Expression (2D spot) ([1]; 6 hr, 50 uM Q10, protein EIF6): up
- Expression (2D spot) ([1]; 6 hr, 50 uM Q10, protein LMNB1): down
- Expression (2D spot) ([1]; 6 hr, 100 uM Q10, protein EIF6): down
- Expression (2D spot) ([1]; 6 hr, 100 uM Q10, protein VIM): up
- Expression (2D spot) ([1]; 12 hr, 50 uM Q10, protein LGALS1): down
- Expression (2D spot) ([1]; 12 hr, 50 uM Q10, protein PDCD6IP): up
- Expression (2D spot) ([1]; 12 hr, 100 uM Q10): up
- Expression (2D spot) ([1]; 24 hr, 50 uM Q10): down
- ATP Citrate Lysase as % of CTRL, Normalized Intensity ([2]; HepG2, 5g glucose, amount 50): 0.85 % of CTRL
- ATP Citrate Lysase as % of CTRL, Normalized Intensity ([2]; HepG2, 5g glucose, amount 100): 0.79 % of CTRL
- ATP Citrate Lysase as % of CTRL, Normalized Intensity ([2]; HepG2, 22G glucose, amount 100): 2.09 % of CTRL
- ATP Citrate Lysase as % of CTRL, Normalized Intensity ([2]; PACA2, 5g glucose, amount 50): 0.68 % of CTRL
- ATP Citrate Lysase as % of CTRL, Normalized Intensity ([2]; PACA2, 5g glucose, amount 100): 0.42 % of CTRL
- ATP Citrate Lysase as % of CTRL, Normalized Intensity ([2]; PACA2, 22G glucose, amount 50): 1.12 % of CTRL
- expression of ACL ([2]; cancer cells): dose-dependent decrease
- Response, direction ([3]; 100 μM Q10, at 6 hr, protein spot 372): Up
- Response ([3]; 100 μM Q10, at 19 hr): Up only at 19 hr
- Response ([3]; 100 μM Q10, at 48 hr): Up at 48 hr
- ECAR ([4]; high glucose hypoxic conditions): lowering of elevated ECAR
- ECAR values ([4]; normoxic and hypoxic, 5.5 mM and 22 mM glucose): minimal influence on ECAR values
